This is an account of results in ChEMBL document CHEMBL4680342, “Discovery of DB18, a potent inhibitor of CLK kinases with a high selectivity against DYRK1A kinase” (Bioorg Med Chem, 2021).

Series [1] has as its target Dual specificity tyrosine-phosphorylation-regulated kinase 1A (Homo sapiens, UniProt Q13627). Kind of series: Inhibition of human DYRK1A at 100 uM by ADP-Glo assay.
Series [2] concerns the target Dual specificity tyrosine-phosphorylation-regulated kinase 1B (Homo sapiens, UniProt Q9Y463). The series can be described thus: Inhibition of human DYRK1B at 100 uM by ADP-Glo assay.
For series [3], the target named is Dual specificity protein kinase CLK1 (Mus musculus) (UniProt P22518). The series can be described thus: Inhibition of mouse CLK1 assessed as residual activity at 10 uM by ADP-Glo assay relative to control.
Sequence of Dual specificity protein kinase CLK1 (Mus musculus) (P22518 whole entry, looked up, the tested form may be a part): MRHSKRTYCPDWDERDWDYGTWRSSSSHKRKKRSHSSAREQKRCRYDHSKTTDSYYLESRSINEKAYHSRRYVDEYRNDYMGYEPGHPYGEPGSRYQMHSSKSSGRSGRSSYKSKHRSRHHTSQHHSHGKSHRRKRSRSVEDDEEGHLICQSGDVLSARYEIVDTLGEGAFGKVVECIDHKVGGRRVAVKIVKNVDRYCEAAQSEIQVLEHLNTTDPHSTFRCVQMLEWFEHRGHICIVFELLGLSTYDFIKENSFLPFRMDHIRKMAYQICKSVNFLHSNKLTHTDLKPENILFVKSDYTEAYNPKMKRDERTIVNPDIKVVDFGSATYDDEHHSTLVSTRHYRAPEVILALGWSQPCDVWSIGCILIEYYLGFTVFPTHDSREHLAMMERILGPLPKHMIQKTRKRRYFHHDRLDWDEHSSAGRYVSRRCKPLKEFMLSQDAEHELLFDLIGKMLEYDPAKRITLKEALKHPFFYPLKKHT
Series [4] has as its target Cyclin-dependent kinase 5/CDK5 activator 1 (Homo sapiens) (UniProt Q00535+Q15078). Kind of series: Inhibition of human CDK5/p25 assessed as residual activity at 10 uM by ADP-Glo assay relative to control. The series is classed as protein-complex assay.
Series [5] has as its target T1, Dual specificity tyrosine-phosphorylation-regulated kinase 2 (Homo sapiens, UniProt Q92630).
T1 sequence (Q92630 whole entry): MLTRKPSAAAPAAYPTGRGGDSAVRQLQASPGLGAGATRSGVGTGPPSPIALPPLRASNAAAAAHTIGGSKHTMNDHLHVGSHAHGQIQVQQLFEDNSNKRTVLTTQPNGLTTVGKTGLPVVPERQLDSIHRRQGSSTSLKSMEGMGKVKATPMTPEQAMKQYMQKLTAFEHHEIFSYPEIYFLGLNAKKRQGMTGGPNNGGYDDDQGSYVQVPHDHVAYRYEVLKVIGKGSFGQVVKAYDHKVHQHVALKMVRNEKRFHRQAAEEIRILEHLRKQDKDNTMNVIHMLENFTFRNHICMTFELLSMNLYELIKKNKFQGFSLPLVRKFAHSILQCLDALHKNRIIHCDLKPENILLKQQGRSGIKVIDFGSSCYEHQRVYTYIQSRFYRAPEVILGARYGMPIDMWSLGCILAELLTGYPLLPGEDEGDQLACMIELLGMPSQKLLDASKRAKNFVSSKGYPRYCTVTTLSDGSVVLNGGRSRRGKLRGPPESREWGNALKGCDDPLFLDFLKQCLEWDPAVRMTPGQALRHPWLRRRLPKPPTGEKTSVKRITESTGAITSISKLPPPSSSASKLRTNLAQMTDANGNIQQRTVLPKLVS
The series can be described thus: Inhibition of human DYRK2 at 100 uM by ADP-Glo assay.

Series [6] concerns the target Serine/threonine-protein kinase pim-1 (Homo sapiens) (UniProt P11309). The series can be described thus: Inhibition of human PIM1 assessed as residual activity at 10 uM by ADP-Glo assay relative to control.
Series [7] deals with T2, Serine/threonine-protein kinase haspin (Homo sapiens) (UniProt Q8TF76).
T2 sequence (whole entry): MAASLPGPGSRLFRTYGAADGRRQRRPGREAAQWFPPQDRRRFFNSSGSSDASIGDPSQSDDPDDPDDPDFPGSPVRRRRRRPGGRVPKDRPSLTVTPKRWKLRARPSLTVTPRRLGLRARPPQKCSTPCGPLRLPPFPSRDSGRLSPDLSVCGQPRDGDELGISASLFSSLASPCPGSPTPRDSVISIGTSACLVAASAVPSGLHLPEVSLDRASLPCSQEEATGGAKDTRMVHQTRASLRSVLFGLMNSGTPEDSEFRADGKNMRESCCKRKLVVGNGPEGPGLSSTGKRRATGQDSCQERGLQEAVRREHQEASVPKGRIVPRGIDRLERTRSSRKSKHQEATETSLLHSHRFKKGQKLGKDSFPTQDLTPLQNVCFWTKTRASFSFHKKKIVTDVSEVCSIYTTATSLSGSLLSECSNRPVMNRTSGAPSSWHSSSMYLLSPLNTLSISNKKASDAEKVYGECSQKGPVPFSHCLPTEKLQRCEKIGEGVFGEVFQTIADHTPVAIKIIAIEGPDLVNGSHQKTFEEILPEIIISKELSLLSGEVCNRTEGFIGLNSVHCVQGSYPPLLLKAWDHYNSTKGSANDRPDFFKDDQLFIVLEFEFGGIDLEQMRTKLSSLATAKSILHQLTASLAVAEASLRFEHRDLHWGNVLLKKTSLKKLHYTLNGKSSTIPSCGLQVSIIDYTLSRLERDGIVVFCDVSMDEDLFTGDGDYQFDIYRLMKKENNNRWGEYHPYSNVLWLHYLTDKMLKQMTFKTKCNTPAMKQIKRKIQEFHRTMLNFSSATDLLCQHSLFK
The series can be described thus: Inhibition of human HASPIN assessed as residual activity at 10 uM by ADP-Glo assay relative to control.

The target of series [8] is Dual specificity protein kinase CLK1 (Mus musculus) (UniProt P22518). The series can be described thus: Inhibition of mouse CLK1 assessed as residual activity by ADP-Glo assay.
For series [9], the target named is Dual specificity tyrosine-phosphorylation-regulated kinase 1A (Rattus norvegicus, UniProt Q63470). The series can be described thus: Inhibition of rat DYRK1A (1 to 499 residues) assessed as residual activity at 100 uM by ADP-Glo assay.
Series [10] deals with CDK9/cyclin T1 (Homo sapiens) (UniProt O60563+P50750). The series can be described thus: Inhibition of human CDK9/CyclinT assessed as residual activity at 10 uM by ADP-Glo assay relative to control. The series is classed as protein-complex assay.
Series [11] concerns the target Glycogen synthase kinase-3 beta (Homo sapiens) (UniProt P49841). Kind of series: Inhibition of human GSK3beta assessed as residual activity at 10 uM by ADP-Glo assay relative to control.
The target in series [12] is Casein kinase I isoform epsilon (Homo sapiens) (UniProt P49674). The series can be described thus: Inhibition of human CK1epsilon assessed as residual activity at 10 uM by ADP-Glo assay relative to control.
Sequence of Casein kinase I isoform epsilon (Homo sapiens) (P49674 whole entry, looked up, the tested form may be a part, canonical isoform): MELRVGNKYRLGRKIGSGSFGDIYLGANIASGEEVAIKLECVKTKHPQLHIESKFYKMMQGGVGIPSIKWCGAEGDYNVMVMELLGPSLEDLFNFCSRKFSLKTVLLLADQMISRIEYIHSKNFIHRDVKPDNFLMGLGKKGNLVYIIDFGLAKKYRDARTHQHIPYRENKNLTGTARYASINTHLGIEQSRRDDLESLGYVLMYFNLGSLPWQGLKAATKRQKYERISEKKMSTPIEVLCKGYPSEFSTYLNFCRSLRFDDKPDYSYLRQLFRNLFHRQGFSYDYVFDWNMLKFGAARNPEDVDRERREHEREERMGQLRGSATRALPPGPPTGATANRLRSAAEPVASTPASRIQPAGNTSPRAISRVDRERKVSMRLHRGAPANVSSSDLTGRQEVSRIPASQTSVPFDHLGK
In series [13] the target is DYRK1A (dual specificity tyrosine-phosphorylation-regulated kinase 1A) (Rattus norvegicus, UniProt Q63470). Kind of series: Inhibition of rat DYRK1A (1 to 499 residues) assessed as residual activity at 10 uM by ADP-Glo assay relative to control. The note with it: rat DYRK1A enzyme (residues 1 to 499), read-out: Activity.

Sequence of Serine/threonine-protein kinase pim-1 (Homo sapiens) (P11309 whole entry, looked up): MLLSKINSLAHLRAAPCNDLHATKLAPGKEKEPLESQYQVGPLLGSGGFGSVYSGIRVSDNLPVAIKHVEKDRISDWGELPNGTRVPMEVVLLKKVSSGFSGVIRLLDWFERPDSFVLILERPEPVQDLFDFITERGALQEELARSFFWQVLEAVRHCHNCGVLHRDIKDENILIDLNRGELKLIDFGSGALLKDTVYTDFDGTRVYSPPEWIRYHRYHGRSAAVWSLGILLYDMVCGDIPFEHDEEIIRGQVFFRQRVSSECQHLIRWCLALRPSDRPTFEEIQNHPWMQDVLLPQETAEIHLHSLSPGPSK
Sequence of Cyclin-dependent kinase 5/CDK5 activator 1 (Homo sapiens) (Q00535 whole entry): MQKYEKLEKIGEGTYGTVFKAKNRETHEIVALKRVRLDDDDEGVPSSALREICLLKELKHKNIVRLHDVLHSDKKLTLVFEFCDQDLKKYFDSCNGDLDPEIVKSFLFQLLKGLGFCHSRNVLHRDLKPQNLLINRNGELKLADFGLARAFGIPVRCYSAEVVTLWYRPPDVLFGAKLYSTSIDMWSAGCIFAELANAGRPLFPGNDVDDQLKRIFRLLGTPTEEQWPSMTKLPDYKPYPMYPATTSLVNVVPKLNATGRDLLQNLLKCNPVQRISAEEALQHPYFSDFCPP
Sequence of Cyclin-dependent kinase 5/CDK5 activator 1 (Homo sapiens) (Q15078 99-307 partner limits assumed): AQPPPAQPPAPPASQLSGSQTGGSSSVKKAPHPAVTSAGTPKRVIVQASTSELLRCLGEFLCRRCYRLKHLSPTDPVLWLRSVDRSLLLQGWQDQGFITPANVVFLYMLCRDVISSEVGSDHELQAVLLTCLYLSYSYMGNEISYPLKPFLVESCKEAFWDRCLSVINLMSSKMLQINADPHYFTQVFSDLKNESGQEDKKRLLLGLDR
Sequence of Dual specificity tyrosine-phosphorylation-regulated kinase 1B (Q9Y463 whole entry): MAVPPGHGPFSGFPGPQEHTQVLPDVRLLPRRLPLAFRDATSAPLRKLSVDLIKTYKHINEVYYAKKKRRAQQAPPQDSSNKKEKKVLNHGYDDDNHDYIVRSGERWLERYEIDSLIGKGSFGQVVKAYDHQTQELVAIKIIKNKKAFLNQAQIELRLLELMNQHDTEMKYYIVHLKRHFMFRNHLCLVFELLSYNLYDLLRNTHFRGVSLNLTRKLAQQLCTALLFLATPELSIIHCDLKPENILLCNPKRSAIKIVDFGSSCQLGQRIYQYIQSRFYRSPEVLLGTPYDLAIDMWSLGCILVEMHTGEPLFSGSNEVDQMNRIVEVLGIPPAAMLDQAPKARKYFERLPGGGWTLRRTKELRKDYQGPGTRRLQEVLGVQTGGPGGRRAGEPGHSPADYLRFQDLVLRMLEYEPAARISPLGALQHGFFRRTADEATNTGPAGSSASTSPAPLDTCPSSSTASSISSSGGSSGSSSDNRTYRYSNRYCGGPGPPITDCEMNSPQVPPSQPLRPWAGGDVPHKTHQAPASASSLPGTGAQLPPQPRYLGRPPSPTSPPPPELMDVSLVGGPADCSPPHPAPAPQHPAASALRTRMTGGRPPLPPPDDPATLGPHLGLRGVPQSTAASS
Sequence of Glycogen synthase kinase-3 beta (Homo sapiens) (P49841 whole entry, looked up, canonical isoform): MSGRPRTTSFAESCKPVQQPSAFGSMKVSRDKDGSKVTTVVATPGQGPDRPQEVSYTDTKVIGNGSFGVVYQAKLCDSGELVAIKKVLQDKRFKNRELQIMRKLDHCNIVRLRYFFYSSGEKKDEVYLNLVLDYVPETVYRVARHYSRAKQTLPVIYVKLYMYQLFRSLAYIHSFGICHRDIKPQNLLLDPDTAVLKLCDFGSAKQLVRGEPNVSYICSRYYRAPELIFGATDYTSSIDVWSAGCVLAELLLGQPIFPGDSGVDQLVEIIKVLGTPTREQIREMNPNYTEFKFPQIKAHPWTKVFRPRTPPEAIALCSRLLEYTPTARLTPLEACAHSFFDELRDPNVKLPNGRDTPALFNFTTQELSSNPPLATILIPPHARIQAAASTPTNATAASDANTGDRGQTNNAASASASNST

Take `Cc1ccc(-n2cc(COc3cccc4cnc(Nc5cccc(Cl)c5)nc34)nn2)c([N+](=O)[O-])c1`: the “inhibition (INH)” value in [1], in series [2], in [5] and in [9] was “Not Active” in each case. Moreover, the Activity came out at 11% in series [3]; 84% in series [4]; 81% in [6]; 94% in series [7]; 54% in series [10]. Moreover, in series [8], the IC50 came to 0.12 µM.

For `Cc1ccc(-n2cc(COc3cccc4cnc(Nc5cccc(Cl)c5)nc34)nn2)cc1[N+](=O)[O-]`, the Activity in [3] was 16%; in series [4], 40%; in series [11], 14%; in [12] it was 41%; in [6] it was 45%; in series [7] it was 44%. Also, the Activity in series [10] is 25%. Moreover, in [13], the activity at 10 µM worked out at 74%. Also, the concentration for half-maximal inhibition (IC50) in [8] was 3 µM.
